Laboratory results taken from ChEMBL document CHEMBL3421625, “Discovery and optimization of novel antagonists to the human neurokinin-3 receptor for the treatment of sex-hormone disorders (Part I)” (J Med Chem, 2015).
pIC50, pKi: −log10 of the molar value. In brackets after ≈: the same amount, converted by molar mass.

Assays:
Substance-K receptor [1] = target: T1, Substance-K receptor (Homo sapiens, UniProt P21452); assay: Displacement of [125I]NKA from human NK2R expressed in CHO cell membranes after 90 mins by scintillation counting analysis
T1 sequence (P21452 whole entry): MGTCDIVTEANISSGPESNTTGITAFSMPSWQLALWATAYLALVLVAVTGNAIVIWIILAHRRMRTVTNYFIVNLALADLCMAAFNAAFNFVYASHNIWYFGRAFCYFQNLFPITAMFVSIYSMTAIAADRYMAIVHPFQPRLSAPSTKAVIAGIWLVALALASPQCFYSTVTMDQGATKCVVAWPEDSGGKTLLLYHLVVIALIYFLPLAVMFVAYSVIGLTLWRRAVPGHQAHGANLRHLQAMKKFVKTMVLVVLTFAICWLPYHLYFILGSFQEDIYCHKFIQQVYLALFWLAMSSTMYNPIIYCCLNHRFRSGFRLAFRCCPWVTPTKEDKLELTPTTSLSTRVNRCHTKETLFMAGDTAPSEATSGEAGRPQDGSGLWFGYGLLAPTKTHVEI

[2] = target: Voltage-gated inwardly rectifying potassium channel KCNH2 (Homo sapiens, UniProt Q12809)
Description: Inhibition of human ERG expressed in HEK293 cells after 5 mins by patch-clamp assay

Cytochrome P450 2C9 = Cytochrome P450 2C9 (Homo sapiens, UniProt P11712); assay: Inhibition of CYP2C9 (unknown origin) by luciferase reporter assay in presence of NADPH regeneration system; assay type: ADME
Neuromedin-K receptor [3] = target: T2, Neuromedin-K receptor (Homo sapiens, UniProt P29371); assay: biochemical
T2 sequence (P29371 whole entry): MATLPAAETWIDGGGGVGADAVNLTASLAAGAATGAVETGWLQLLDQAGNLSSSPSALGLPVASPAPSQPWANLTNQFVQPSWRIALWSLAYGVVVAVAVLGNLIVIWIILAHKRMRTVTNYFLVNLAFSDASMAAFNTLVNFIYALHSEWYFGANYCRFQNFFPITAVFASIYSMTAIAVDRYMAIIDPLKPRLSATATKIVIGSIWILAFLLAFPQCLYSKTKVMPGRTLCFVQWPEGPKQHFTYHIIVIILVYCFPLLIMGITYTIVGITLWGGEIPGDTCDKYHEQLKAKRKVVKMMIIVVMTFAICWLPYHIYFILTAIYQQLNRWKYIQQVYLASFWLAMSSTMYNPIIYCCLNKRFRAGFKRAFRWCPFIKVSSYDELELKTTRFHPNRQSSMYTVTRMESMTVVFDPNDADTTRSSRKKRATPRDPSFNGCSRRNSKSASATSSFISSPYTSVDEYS
Description: Displacement of [3H]-SB222200 from recombinant human NK3R expressed in CHO cell membranes after 90 mins by scintillation counting analysis

Cytochrome P450 2C19 = Cytochrome P450 2C19 (Homo sapiens, UniProt P33261); assay: Inhibition of CYP2C19 (unknown origin) by luciferase reporter assay in presence of NADPH regeneration system
[4] = Solubility of the compound in PBS buffer at pH 7.4 by shake-flask method; assay type: physicochemical
Cytochrome P450 3A4 = Cytochrome P450 3A4 (Homo sapiens, UniProt P08684); assay: Inhibition of CYP3A4 (unknown origin) by luciferase reporter assay in presence of NADPH regeneration system; assay type: ADME
Cytochrome P450 1A2 = target: T3, Cytochrome P450 1A2 (Homo sapiens, UniProt P05177); assay: Inhibition of CYP1A2 (unknown origin) by luciferase reporter assay in presence of NADPH regeneration system; assay type: ADME
T3 sequence (P05177 whole entry): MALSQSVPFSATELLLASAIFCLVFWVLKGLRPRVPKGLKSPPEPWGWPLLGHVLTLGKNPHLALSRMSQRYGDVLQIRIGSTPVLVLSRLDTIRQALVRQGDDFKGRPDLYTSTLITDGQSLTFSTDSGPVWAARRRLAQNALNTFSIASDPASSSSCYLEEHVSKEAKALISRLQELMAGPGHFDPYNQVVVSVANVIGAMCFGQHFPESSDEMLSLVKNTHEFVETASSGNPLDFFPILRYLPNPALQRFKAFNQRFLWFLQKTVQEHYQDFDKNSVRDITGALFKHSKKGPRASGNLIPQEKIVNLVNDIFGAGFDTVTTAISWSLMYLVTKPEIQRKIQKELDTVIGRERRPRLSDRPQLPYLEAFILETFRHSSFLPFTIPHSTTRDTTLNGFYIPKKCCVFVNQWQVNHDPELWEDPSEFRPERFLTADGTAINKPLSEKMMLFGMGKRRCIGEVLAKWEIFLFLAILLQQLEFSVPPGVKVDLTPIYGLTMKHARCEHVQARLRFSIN

[5] = Lipophilicity, log D of the compound at pH 7.4; assay type: physicochemical; conditions: buffer, read-out: logD
Cytochrome P450 2D6 = Cytochrome P450 2D6 (Homo sapiens, UniProt P10635); assay: Inhibition of CYP2D6 (unknown origin) by luciferase reporter assay in presence of NADPH regeneration system; assay type: ADME
Neuromedin-K receptor [6] = target: T2, Neuromedin-K receptor
Substance-P receptor = Substance-P receptor (Homo sapiens, UniProt P25103)
Description: Displacement of [3H]-Substance P from human NK1R after 90 mins by scintillation counting analysis

[7] = Apparent permeability across basolateral to apical side in human Caco2 cells in presence of 0.1% bovine serum albumin; conditions: Caco-2
[8] = Fraction unbound in rat brain at 5 uM after 4 hrs by equilibrium dialysis method; assay type: ADME, tissue-based
[9] = Ratio of unbound drug level in brain to plasma in Sprague-Dawley rat at 1 mg/kg, iv measured at 10 mins; conditions: brain and plasma
[10] = Ratio of unbound drug level in brain to plasma in Sprague-Dawley rat at 1 mg/kg, iv measured at 60 mins; conditions: brain and plasma
[11] = target: Kappa-type opioid receptor (Homo sapiens) (UniProt P41145); assay: Inhibition of KOR (unknown origin) at 10 uM relative to control
in vivo [12] = conditions: Sprague-Dawley, rat, po, 3 mg/kg
in vivo [13] = conditions: Sprague-Dawley, rat, iv, 1 mg/kg
NK-3 receptor = target: T4, NK-3 receptor (Macaca mulatta, UniProt Q2WGM0)
T4 sequence (Q2WGM0 whole entry): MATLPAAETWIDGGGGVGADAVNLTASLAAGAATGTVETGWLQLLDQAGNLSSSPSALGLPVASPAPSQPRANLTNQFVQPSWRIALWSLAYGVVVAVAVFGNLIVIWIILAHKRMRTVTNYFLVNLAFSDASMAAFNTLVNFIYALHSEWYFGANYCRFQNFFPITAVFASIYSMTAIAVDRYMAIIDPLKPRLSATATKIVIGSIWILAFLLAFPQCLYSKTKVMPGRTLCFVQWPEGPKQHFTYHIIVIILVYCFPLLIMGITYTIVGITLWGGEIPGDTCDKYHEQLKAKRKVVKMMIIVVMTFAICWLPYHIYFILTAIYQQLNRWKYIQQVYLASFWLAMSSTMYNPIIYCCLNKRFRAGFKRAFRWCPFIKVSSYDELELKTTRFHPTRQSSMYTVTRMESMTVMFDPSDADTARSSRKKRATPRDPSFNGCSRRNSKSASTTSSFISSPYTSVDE
Description: Displacement of [3H]-SB222200 from monkey NK3R after 90 mins by scintillation counting analysis

Substance-K receptor [14] = target: T1, Substance-K receptor; assay: Displacement of [125I]-neurokinin A from human NK2R after 90 mins by scintillation counting analysis
[15] = Apparent permeability across apical to basolateral side in human Caco2 cells in presence of 0.1% bovine serum albumin; conditions: Caco-2
[16] = Total systemic clearance in Sprague-Dawley rat at 1 mg/kg, iv by LC-MS/MS analysis; assay type: ADME, organism-based; set-up: dose 1 mg/kg, route intravenous; conditions: in vivo
Rattus norvegicus [17] = assay: Unbound Cmax in Sprague-Dawley rat at 3 mg/kg, po by LC-MS/MS analysis; assay type: ADME, organism-based; set-up: dose 3 mg/kg, route oral; conditions: in vivo
Neuromedin-K receptor [18] = target: T5, Neuromedin-K receptor (Rattus norvegicus, UniProt P16177)
T5 sequence (P16177 whole entry): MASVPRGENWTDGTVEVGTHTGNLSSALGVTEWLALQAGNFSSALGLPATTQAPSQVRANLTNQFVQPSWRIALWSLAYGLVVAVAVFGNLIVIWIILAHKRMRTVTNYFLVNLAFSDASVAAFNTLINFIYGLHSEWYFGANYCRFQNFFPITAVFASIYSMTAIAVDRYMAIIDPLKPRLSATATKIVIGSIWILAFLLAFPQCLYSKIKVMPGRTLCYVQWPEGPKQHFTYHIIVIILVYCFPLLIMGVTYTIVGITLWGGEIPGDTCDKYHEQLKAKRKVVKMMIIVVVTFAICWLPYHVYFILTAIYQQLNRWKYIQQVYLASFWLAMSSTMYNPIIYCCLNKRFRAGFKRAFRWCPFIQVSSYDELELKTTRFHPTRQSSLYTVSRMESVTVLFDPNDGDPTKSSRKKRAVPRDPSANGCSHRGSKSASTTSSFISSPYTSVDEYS
Description: Displacement of [3H]-SB222200 from rat NK3R after 90 mins by scintillation counting analysis

Rattus norvegicus [19] = assay: Unbound AUC in Sprague-Dawley rat at 3 mg/kg, po by LC-MS/MS analysis; assay type: ADME, organism-based; set-up: dose 3 mg/kg, route oral; conditions: in vivo
[20] = Fraction unbound in rat plasma at 5 uM after 4 hrs by equilibrium dialysis method; assay type: ADME, cell-free
Rattus norvegicus [21] = assay: Unbound AUC in Sprague-Dawley rat at 1 mg/kg, iv by LC-MS/MS analysis; assay type: ADME, organism-based; set-up: dose 1 mg/kg, route intravenous; conditions: in vivo
in vivo [22] = conditions: Sprague-Dawley, rat, po, 3 mg/kg; remark: listed apart in the source
in vivo [23] = conditions: Sprague-Dawley, rat, iv, 1 mg/kg; remark: listed apart in the source
Description: Volume of distribution at steady state in Sprague-Dawley rat at 1 mg/kg, iv by LC-MS/MS analysis

[24] = Half life in rat liver microsomes; assay type: ADME
[25] = target: T6, Gonadotropin-releasing hormone receptor (Homo sapiens) (UniProt P30968); assay: Inhibition of GnRH-R (unknown origin) at 10 uM relative to control
T6 sequence (whole entry): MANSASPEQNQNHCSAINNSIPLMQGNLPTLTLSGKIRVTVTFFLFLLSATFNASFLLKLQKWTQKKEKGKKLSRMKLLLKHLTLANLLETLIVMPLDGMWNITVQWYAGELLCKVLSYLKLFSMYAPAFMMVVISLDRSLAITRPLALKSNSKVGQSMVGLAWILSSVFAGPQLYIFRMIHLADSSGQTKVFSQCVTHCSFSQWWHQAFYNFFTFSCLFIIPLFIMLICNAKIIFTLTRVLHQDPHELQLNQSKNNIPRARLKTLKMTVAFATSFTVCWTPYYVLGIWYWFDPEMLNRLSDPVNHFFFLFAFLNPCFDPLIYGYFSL

[26] = target: Neuropeptide FF receptor 1 (Homo sapiens) (UniProt Q9GZQ6); assay: Inhibition of NPFF1 (unknown origin) at 10 uM relative to control
Chain of Neuropeptide FF receptor 1 (Homo sapiens) (Q9GZQ6 whole entry): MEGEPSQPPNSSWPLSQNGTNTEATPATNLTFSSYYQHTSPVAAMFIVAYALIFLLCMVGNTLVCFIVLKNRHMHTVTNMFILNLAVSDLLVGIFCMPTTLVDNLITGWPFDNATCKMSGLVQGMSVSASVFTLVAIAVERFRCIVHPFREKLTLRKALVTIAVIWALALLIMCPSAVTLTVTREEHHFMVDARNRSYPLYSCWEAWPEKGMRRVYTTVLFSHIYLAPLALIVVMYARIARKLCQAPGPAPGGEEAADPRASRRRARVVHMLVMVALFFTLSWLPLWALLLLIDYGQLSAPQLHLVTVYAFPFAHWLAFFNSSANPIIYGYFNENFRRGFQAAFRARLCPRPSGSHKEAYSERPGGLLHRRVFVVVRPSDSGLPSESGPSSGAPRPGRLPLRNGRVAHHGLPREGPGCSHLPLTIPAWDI

Chain of Cytochrome P450 2C19 (P33261 whole entry): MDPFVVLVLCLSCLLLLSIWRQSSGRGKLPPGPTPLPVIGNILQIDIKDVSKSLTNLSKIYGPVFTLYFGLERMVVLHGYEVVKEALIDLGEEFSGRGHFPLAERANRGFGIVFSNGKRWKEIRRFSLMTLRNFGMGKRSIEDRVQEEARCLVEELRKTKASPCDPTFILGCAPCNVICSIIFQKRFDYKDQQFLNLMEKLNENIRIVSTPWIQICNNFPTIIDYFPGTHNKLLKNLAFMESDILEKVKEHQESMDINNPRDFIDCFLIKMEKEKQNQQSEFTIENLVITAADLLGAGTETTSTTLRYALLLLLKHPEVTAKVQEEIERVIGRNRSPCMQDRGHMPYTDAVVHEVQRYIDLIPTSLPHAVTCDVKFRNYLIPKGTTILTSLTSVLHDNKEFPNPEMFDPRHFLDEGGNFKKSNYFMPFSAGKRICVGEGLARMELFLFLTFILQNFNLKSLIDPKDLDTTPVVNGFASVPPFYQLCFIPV
Chain of Cytochrome P450 2C9 (P11712 whole entry): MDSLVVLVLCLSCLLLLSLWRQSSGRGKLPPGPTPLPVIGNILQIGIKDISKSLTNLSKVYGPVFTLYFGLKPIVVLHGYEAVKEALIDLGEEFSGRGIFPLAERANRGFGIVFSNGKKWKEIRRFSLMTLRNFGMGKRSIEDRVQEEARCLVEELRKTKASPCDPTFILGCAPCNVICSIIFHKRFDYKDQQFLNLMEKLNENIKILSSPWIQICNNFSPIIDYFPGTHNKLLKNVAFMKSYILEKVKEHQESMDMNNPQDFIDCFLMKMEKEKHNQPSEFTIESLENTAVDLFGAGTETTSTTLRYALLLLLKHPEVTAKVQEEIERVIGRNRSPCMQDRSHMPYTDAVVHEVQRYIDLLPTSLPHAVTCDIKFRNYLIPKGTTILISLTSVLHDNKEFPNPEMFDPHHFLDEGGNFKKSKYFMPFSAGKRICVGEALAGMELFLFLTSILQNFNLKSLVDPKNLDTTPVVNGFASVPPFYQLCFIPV
Chain of Kappa-type opioid receptor (Homo sapiens) (P41145 whole entry): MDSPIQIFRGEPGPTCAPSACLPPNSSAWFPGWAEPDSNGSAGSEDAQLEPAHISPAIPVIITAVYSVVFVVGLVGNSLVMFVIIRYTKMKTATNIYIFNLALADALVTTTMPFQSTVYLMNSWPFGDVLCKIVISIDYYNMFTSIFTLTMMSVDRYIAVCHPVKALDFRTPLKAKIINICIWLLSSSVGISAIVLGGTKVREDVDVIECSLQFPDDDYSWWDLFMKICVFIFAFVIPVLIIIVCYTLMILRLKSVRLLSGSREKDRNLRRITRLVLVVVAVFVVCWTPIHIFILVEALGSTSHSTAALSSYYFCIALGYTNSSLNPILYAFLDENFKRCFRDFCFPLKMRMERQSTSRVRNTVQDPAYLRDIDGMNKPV
Chain of Cytochrome P450 2D6 (P10635 whole entry): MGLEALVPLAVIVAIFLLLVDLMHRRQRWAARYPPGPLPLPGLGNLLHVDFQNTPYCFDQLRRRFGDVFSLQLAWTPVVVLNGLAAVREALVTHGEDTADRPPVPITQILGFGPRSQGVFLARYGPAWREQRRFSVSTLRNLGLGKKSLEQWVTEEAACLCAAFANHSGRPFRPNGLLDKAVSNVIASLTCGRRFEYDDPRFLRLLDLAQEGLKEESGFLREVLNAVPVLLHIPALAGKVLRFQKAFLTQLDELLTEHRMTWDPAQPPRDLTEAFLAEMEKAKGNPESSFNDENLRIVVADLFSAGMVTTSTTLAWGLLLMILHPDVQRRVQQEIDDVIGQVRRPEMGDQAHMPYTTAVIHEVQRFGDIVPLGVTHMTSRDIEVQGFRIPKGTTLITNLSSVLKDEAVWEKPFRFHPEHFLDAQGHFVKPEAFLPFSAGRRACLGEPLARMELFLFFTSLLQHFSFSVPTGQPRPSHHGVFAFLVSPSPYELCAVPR
Chain of Cytochrome P450 3A4 (P08684 whole entry): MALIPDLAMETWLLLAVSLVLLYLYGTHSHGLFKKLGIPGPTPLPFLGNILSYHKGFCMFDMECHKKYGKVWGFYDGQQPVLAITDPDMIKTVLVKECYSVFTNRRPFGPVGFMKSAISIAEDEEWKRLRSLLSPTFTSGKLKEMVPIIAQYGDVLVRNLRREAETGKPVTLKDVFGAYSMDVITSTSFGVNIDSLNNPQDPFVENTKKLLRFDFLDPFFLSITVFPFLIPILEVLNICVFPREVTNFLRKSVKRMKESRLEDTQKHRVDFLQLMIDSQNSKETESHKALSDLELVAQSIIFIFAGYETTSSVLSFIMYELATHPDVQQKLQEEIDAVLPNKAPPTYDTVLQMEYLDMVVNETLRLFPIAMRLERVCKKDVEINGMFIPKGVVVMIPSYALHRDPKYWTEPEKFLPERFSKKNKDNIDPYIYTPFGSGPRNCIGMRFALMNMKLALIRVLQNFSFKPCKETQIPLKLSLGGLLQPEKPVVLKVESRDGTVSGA
Chain of Substance-P receptor (P25103 whole entry): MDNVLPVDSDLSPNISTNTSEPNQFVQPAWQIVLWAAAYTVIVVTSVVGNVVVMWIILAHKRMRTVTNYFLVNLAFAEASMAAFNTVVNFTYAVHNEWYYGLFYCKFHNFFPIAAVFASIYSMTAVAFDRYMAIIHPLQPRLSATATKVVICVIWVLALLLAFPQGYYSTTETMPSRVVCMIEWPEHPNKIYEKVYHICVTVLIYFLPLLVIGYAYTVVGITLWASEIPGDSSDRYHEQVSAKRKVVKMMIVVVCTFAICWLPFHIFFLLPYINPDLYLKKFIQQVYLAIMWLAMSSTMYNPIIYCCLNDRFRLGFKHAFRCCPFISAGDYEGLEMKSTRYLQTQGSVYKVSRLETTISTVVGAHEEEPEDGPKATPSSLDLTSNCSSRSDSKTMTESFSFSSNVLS
Chain of Voltage-gated inwardly rectifying potassium channel KCNH2 (Q12809 whole entry): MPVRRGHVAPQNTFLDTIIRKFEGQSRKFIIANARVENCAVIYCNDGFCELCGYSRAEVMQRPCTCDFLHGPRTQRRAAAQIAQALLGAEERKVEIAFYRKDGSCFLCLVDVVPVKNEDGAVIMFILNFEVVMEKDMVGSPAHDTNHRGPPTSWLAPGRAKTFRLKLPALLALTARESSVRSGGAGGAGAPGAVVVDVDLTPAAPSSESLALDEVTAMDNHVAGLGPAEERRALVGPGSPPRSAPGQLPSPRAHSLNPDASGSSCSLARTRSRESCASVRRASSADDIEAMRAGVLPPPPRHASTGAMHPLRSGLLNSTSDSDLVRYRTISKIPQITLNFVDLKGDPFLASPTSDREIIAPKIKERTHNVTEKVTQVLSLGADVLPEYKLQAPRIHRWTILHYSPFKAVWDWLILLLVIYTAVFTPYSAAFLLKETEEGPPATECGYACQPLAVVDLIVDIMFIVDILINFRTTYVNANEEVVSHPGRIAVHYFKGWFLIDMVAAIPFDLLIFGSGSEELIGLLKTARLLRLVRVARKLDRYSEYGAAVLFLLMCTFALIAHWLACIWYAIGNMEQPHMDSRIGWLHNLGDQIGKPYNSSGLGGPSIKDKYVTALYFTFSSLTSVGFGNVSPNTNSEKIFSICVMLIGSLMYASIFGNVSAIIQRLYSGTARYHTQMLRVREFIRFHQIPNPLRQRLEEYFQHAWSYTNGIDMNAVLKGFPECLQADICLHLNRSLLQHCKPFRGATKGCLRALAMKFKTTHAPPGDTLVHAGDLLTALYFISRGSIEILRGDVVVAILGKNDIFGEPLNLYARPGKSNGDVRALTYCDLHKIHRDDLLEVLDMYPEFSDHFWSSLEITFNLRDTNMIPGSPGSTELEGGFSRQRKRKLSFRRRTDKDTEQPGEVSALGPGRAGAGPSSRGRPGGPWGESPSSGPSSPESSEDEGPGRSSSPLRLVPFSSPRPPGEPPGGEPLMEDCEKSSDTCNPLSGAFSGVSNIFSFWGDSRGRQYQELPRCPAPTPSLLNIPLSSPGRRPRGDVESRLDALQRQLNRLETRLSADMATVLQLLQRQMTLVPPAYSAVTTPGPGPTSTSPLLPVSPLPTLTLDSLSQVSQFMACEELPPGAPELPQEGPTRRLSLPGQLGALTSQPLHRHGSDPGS

Structure (SMILES) | pIC50 (Cytochrome P450 2C9) | pKi (Neuromedin-K receptor [3]) | pIC50 (Cytochrome P450 2C19) | solubility thermodynamic [4] | pIC50 (Cytochrome P450 3A4) | pIC50 (Cytochrome P450 1A2) | logD [5] | pIC50 (Cytochrome P450 2D6) | pIC50 (Neuromedin-K receptor [6]) | pKi (Substance-P receptor) | Papp B→A [7] | fraction unbound at 4 h, 5 µM [8] | Kp uu at 10 min [9] | Kp uu at 1 h [10] | inhibition [11] | Tmax (in vivo [12]) | half-life (in vivo [13]) | pKi (NK-3 receptor) | pKi (Substance-K receptor [14]) | Papp A→B [15] | also measured
CSCC[C@H](NC(=O)[C@H](CC(C)C)NC(=O)CNC(=O)[C@@H](NC(=O)[C@H](Cc1ccccc1)NC(=O)[C@H](Cc1ccccc1)NC(=O)[C@H](CC(=O)O)NC(=O)[C@H](Cc1c[nH]cn1)NC(=O)[C@H](CCSC)NC(=O)[C@@H](N)CC(=O)O)C(C)C)C(N)=O [NEUROKININ B] | – | – | – | – | – | – | – | – | – | – | – | – | – | – | – | – | – | – | – | – | pKi (Substance-K receptor [1]): 7.80
Cc1nc(-c2nnc3n2CCN(C(=O)c2ccc(-c4cccs4)cc2)C3)cs1 | 4.72 | 7.10 | 4.82 | 172 µM (≈ 70.1 µg/mL) | 4.52 | 4.72 | 2.9 | < 4.00 | 7.10 | – | – | – | – | – | – | – | – | – | – | – | pIC50 [2]: 4.57
CC(C)c1nc(-c2nnc3n2CCN(C(=O)c2ccc(-c4cccs4)cc2)[C@@H]3C)co1 | 4.85 | 8.50 | 4.66 | 119 µM (≈ 51.6 µg/mL) | 4.37 | 4.09 | 3.3 | 4.19 | 8.40 | 5.10 | 43.8 ×10⁻⁶ cm/s | 0.016 | 0.2 | 0.2 | 41% | 1.13 h | 3.5 h | 8.20 | 5.00 | 46.4 ×10⁻⁶ cm/s | clearance [16]: 8.2 mL/min/kg; fCmax (Rattus norvegicus [17]): 58.7 nM; pKi (Neuromedin-K receptor [18]): 7.49; fAUC (Rattus norvegicus [19]): 13.6 µM·min; fraction unbound at 4 h, 5 µM [20]: 0.036; fAUC (Rattus norvegicus [21]): 9.3 µM·min; bioavailability (in vivo [22]): 49%; Vd (in vivo [23]): 2.6 L/kg
Cc1noc(-c2nnc3n2CCN(C(=O)c2ccc(-c4cccs4)cc2)[C@@H]3C)n1 | 4.40 | 7.60 | 4.27 | 185 µM (≈ 75.2 µg/mL) | 4.26 | 4.49 | 2.2 | < 4.00 | 7.60 | – | 60.4 ×10⁻⁶ cm/s | 0.084 | 0.6 | 0.4 | 23% | 0.583 h | 1.03 h | 7.60 | – | 57.4 ×10⁻⁶ cm/s | clearance [16]: 11.3 mL/min/kg; fCmax (Rattus norvegicus [17]): 272 nM; pKi (Neuromedin-K receptor [18]): 6.94; fAUC (Rattus norvegicus [19]): 46.3 µM·min; fraction unbound at 4 h, 5 µM [20]: 0.108; fAUC (Rattus norvegicus [21]): 23.3 µM·min; bioavailability (in vivo [22]): 66%; Vd (in vivo [23]): 1 L/kg
N#CC(c1ccccn1)c1ccnc(N2CCN(C(=O)c3ccc(F)cc3)CC2)n1 (stereo not given) | > 5.30 | 7.12 | > 5.30 | 1.3 µM (≈ 0.523 µg/mL) | – | > 5.30 | 3.4 | > 5.30 | 6.96 | – | – | – | – | – | – | – | – | – | – | – | half-life [24]: 0.217 h
Cc1nsc(-c2nnc3n2CCN(C(=O)c2ccc(-c4cccs4)cc2)[C@@H]3C)n1 | – | – | – | – | – | – | – | – | – | 4.90 | – | – | – | – | 42% | – | – | 8.20 | 4.90 | – | inhibition [25]: 35%; inhibition [26]: 24%
